{"source": "patent US20130029928A1", "about": "(priority 2010, published 2013)", "assay": "Phase I study CXR1002-001: plasma pharmacokinetics (LC-MS/MS)", "assay_type": "in vivo, human", "conditions": "human, plasma, plasma; for concentration at 336 hr: 336 hr (Day 15)", "text": "PK samples, PD (fasting) samples, blood glucose, and blood triglyceride samples, were taken over a 6-week period.\nDose limiting toxicity (DLT) will be based on the toxicity assessments over the first 3-week period of the repeat dosing schedule. PK samples (single blood sample) were taken on the following basis: • Every 6 weeks during the repeat dosing phase • If dosing is interrupted or stopped, samples will be taken at intervals according to patient convenience • PK sampling for safety evaluation may take place at any time, as clinically indicated\nPlasma samples were collected after the single 50 mg dose at the following timepoints: Pre-dose, and then 0.25, 0.5, 0.75, 1, 1.5, 2, 3, 4, 6, 24, 48, and 72 hours after administration and then once weekly at weeks 2, 3, 4, 5, and 6 (days 8, 15, 22, 29, and 36). For patients treated with the weekly repeat dose, plasma samples were collected at the following timepoints: Pre-dose and then 2, 3, 4 and 24 hours after administration for a total of 6 weeks. Thereafter a single sample was collected every 6 weeks for monitoring of exposure during long term treatment. Plasma samples were processed at site and stored at −80° C. prior to batch shipment to the analytical laboratory.", "note": "Read-outs that look alike come from different tables or passages of the source.", "data": [{"smiles": "O=C(O)C(F)(F)C(F)(F)C(F)(F)C(F)(F)C(F)(F)C(F)(F)C(F)(F)F", "note": "[CXR1002]", "values": [{"measurement": "concentration at 4 hr", "setting": "oral, 1200 mg, Patient 034, 1200 mg, person, 4 hr, read-out: Concentration", "result": 560, "unit": "µM"}, {"measurement": "concentration at 24 hr", "setting": "oral, 1200 mg, Patient 034, 1200 mg, person, 24 hr (Day 2), read-out: Concentration", "result": 409, "unit": "µM"}, {"measurement": "concentration at 168 hr", "setting": "oral, 1200 mg, Patient 034, 1200 mg, person, 168 hr (Day 8), read-out: Concentration", "result": 351, "unit": "µM"}, {"measurement": "concentration at 170 hr", "setting": "oral, 1200 mg, Patient 034, 1200 mg, person, 170 hr, read-out: Concentration", "result": 893, "unit": "µM"}, {"measurement": "concentration at 171 hr", "setting": "oral, 1200 mg, Patient 034, 1200 mg, person, 171 hr, read-out: Concentration", "result": 771, "unit": "µM"}, {"measurement": "concentration at 172 hr", "setting": "oral, 1200 mg, Patient 034, 1200 mg, person, 172 hr, read-out: Concentration", "result": 730, "unit": "µM"}, {"measurement": "concentration at 192 hr", "setting": "oral, 1200 mg, Patient 034, 1200 mg, person, 192 hr (Day 9), read-out: Concentration", "result": 722, "unit": "µM"}, {"measurement": "concentration at 336 hr", "setting": "oral, 1200 mg, Patient 034, 1200 mg, person, read-out: Concentration", "result": 644, "unit": "µM"}, {"measurement": "concentration at 338 hr", "setting": "oral, 1200 mg, Patient 034, 1200 mg, person, 338 hr, read-out: Concentration", "result": 1030, "unit": "µM"}, {"measurement": "concentration at 339 hr", "setting": "oral, 1200 mg, Patient 034, 1200 mg, person, 339 hr, read-out: Concentration", "result": 1120, "unit": "µM"}, {"measurement": "concentration at 340 hr", "setting": "oral, 1200 mg, Patient 034, 1200 mg, person, 340 hr, read-out: Concentration", "result": 955, "unit": "µM"}, {"measurement": "concentration at 360 hr", "setting": "oral, 1200 mg, Patient 034, 1200 mg, person, 360 hr (Day 16), read-out: Concentration", "result": 1020, "unit": "µM"}, {"measurement": "concentration at 504 hr", "setting": "oral, 1200 mg, Patient 034, 1200 mg, person, 504 hr (Day 22), read-out: Concentration", "result": 924, "unit": "µM"}, {"measurement": "concentration at 506 hr", "setting": "oral, 1200 mg, Patient 034, 1200 mg, person, 506 hr, read-out: Concentration", "result": 1350, "unit": "µM"}, {"measurement": "concentration at 507 hr", "setting": "oral, 1200 mg, Patient 034, 1200 mg, person, 507 hr, read-out: Concentration", "result": 1220, "unit": "µM"}, {"measurement": "concentration at 508 hr", "setting": "oral, 1200 mg, Patient 034, 1200 mg, person, 508 hr, read-out: Concentration", "result": 1440, "unit": "µM"}, {"measurement": "concentration at 528 hr", "setting": "oral, 1200 mg, Patient 034, 1200 mg, person, 528 hr (Day 23), read-out: Concentration", "result": 1360, "unit": "µM"}, {"measurement": "concentration at 672 hr", "setting": "oral, 1200 mg, Patient 034, 1200 mg, person, 672 hr (Day 29), read-out: Concentration", "result": 1080, "unit": "µM"}, {"measurement": "concentration at 674 hr", "setting": "oral, 1200 mg, Patient 034, 1200 mg, person, 674 hr, read-out: Concentration", "result": 1310, "unit": "µM"}, {"measurement": "concentration at 675 hr", "setting": "oral, 1200 mg, Patient 034, 1200 mg, person, 675 hr, read-out: Concentration", "result": 1450, "unit": "µM"}, {"measurement": "concentration at 676 hr", "setting": "oral, 1200 mg, Patient 034, 1200 mg, person, 676 hr, read-out: Concentration", "result": 1380, "unit": "µM"}, {"measurement": "concentration at 696 hr", "setting": "oral, 1200 mg, Patient 034, 1200 mg, person, 696 hr (Day 30), read-out: Concentration", "result": 1310, "unit": "µM"}, {"measurement": "concentration at 2 hr", "setting": "oral, 1200 mg, Patient 035, 1200 mg, person, 2 hr, read-out: Concentration", "result": 298, "unit": "µM"}, {"measurement": "concentration at 3 hr", "setting": "oral, 1200 mg, Patient 035, 1200 mg, person, 3 hr, read-out: Concentration", "result": 196, "unit": "µM"}, {"measurement": "concentration at 4 hr", "setting": "oral, 1200 mg, Patient 035, 1200 mg, person, 4 hr, read-out: Concentration", "result": 317, "unit": "µM"}, {"measurement": "concentration at 24 hr", "setting": "oral, 1200 mg, Patient 035, 1200 mg, person, 24 hr (Day 2), read-out: Concentration", "result": 261, "unit": "µM"}, {"measurement": "concentration at 168 h", "setting": "oral, 1200 mg, Patient 035, 1200 mg, person, 168 hr (Day 8), read-out: Concentration", "result": 254, "unit": "µM"}, {"measurement": "concentration at 170 h", "setting": "oral, 1200 mg, Patient 035, 1200 mg, person, 170 hr, read-out: Concentration", "result": 460, "unit": "µM"}, {"measurement": "concentration at 171 h", "setting": "oral, 1200 mg, Patient 035, 1200 mg, person, 171 hr, read-out: Concentration", "result": 479, "unit": "µM"}, {"measurement": "concentration at 172 h", "setting": "oral, 1200 mg, Patient 035, 1200 mg, person, 172 hr, read-out: Concentration", "result": 592, "unit": "µM"}, {"measurement": "concentration at 192 h", "setting": "oral, 1200 mg, Patient 035, 1200 mg, person, 192 hr (Day 9), read-out: Concentration", "result": 543, "unit": "µM"}, {"measurement": "concentration at 336 hr", "setting": "oral, 1200 mg, Patient 035, 1200 mg, person, read-out: Concentration", "result": 476, "unit": "µM"}, {"measurement": "concentration at 338 hr", "setting": "oral, 1200 mg, Patient 035, 1200 mg, person, 338 hr, read-out: Concentration", "result": 570, "unit": "µM"}, {"measurement": "concentration at 339 hr", "setting": "oral, 1200 mg, Patient 035, 1200 mg, person, 339 hr, read-out: Concentration", "result": 621, "unit": "µM"}, {"measurement": "concentration at 340 hr", "setting": "oral, 1200 mg, Patient 035, 1200 mg, person, 340 hr, read-out: Concentration", "result": 649, "unit": "µM"}, {"measurement": "concentration at 360 h", "setting": "oral, 1200 mg, Patient 035, 1200 mg, person, 360 hr (Day 16), read-out: Concentration", "result": 704, "unit": "µM"}, {"measurement": "concentration at 504 h", "setting": "oral, 1200 mg, Patient 035, 1200 mg, person, 504 hr (Day 22), read-out: Concentration", "result": 600, "unit": "µM"}, {"measurement": "concentration at 506 h", "setting": "oral, 1200 mg, Patient 035, 1200 mg, person, 506 hr, read-out: Concentration", "result": 774, "unit": "µM"}, {"measurement": "concentration at 507 h", "setting": "oral, 1200 mg, Patient 035, 1200 mg, person, 507 hr, read-out: Concentration", "result": 925, "unit": "µM"}, {"measurement": "concentration at 508 h", "setting": "oral, 1200 mg, Patient 035, 1200 mg, person, 508 hr, read-out: Concentration", "result": 1020, "unit": "µM"}, {"measurement": "concentration at 2 hr", "setting": "po, 1000 mg, Patient 041, 1000 mg weekly oral dose, Time 2 hr, read-out: Concentration (plasma level)", "result": 223, "unit": "µM"}, {"measurement": "concentration at 3 hr", "setting": "po, 1000 mg, Patient 041, 1000 mg weekly oral dose, Time 3 hr, read-out: Concentration (plasma level)", "result": 233, "unit": "µM"}, {"measurement": "concentration at 4 hr", "setting": "po, 1000 mg, Patient 041, 1000 mg weekly oral dose, Time 4 hr, read-out: Concentration (plasma level)", "result": 207, "unit": "µM"}, {"measurement": "concentration at 24 hr", "setting": "po, 1000 mg, Patient 041, 1000 mg weekly oral dose, Time 24 hr (Day 2), read-out: Concentration (plasma level)", "result": 175, "unit": "µM"}, {"measurement": "concentration at 168 hr", "setting": "po, 1000 mg, Patient 041, 1000 mg weekly oral dose, Time 168 hr (Day 8), read-out: Concentration (plasma level)", "result": 171, "unit": "µM"}, {"measurement": "concentration at 170 hr", "setting": "po, 1000 mg, Patient 041, 1000 mg weekly oral dose, Time 170 hr, read-out: Concentration (plasma level)", "result": 342, "unit": "µM"}, {"measurement": "concentration at 171 hr", "setting": "po, 1000 mg, Patient 041, 1000 mg weekly oral dose, Time 171 hr, read-out: Concentration (plasma level)", "result": 413, "unit": "µM"}, {"measurement": "concentration at 172 hr", "setting": "po, 1000 mg, Patient 041, 1000 mg weekly oral dose, Time 172 hr, read-out: Concentration (plasma level)", "result": 357, "unit": "µM"}, {"measurement": "concentration at 192 hr", "setting": "po, 1000 mg, Patient 041, 1000 mg weekly oral dose, Time 192 hr (Day 9), read-out: Concentration (plasma level)", "result": 396, "unit": "µM"}, {"measurement": "concentration at 336 h", "setting": "po, 1000 mg, Patient 041, 1000 mg weekly oral dose, Time 336 hr (Day 15), read-out: Concentration (plasma level)", "result": 294, "unit": "µM"}, {"measurement": "concentration at 338 hr", "setting": "po, 1000 mg, Patient 041, 1000 mg weekly oral dose, Time 338 hr, read-out: Concentration (plasma level)", "result": 411, "unit": "µM"}, {"measurement": "concentration at 339 hr", "setting": "po, 1000 mg, Patient 041, 1000 mg weekly oral dose, Time 339 hr, read-out: Concentration (plasma level)", "result": 485, "unit": "µM"}, {"measurement": "concentration at 340 hr", "setting": "po, 1000 mg, Patient 041, 1000 mg weekly oral dose, Time 340 hr, read-out: Concentration (plasma level)", "result": 478, "unit": "µM"}, {"measurement": "concentration at 360 hr", "setting": "po, 1000 mg, Patient 041, 1000 mg weekly oral dose, Time 360 hr (Day 16), read-out: Concentration (plasma level)", "result": 508, "unit": "µM"}, {"measurement": "concentration at 504 hr", "setting": "po, 1000 mg, Patient 041, 1000 mg weekly oral dose, Time 504 hr (Day 22), read-out: Concentration (plasma level)", "result": 558, "unit": "µM"}, {"measurement": "concentration at 506 hr", "setting": "po, 1000 mg, Patient 041, 1000 mg weekly oral dose, Time 506 hr, read-out: Concentration (plasma level)", "result": 674, "unit": "µM"}, {"measurement": "concentration at 507 hr", "setting": "po, 1000 mg, Patient 041, 1000 mg weekly oral dose, Time 507 hr, read-out: Concentration (plasma level)", "result": 748, "unit": "µM"}, {"measurement": "concentration at 508 hr", "setting": "po, 1000 mg, Patient 041, 1000 mg weekly oral dose, Time 508 hr, read-out: Concentration (plasma level)", "result": 676, "unit": "µM"}]}]}
